What was measured:
Type in all cases: biochemical
[1] = target: cathepsin B (Homo sapiens, UniProt P07858); test: Inhibitory activity assay against cathepsin B (enzyme assay); details: Z-Arg-Arg-AMC 40 μM, enzyme 1 nM, pH 6.0, 90 minutes
Procedure, shortened: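 1 nM enzyme with 40 μM Z-Arg-Arg-AMC and compound (10.0 μM down to 0.000508 μM, 10 points) in pH 6.0 buffer of 50 mM MES, 5 mM DTT, 2.5 mM EDTA, 0.005% Polysorbate 20, 10% DMSO. Fluorescence (340/460 nm) read after 90 min; IC50 by 4-parameter logistic fit.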

[2] = target: cathepsin L (Homo sapiens, UniProt P07711); test: Inhibitory activity assay against cathepsin L (enzyme assay); details: Z-Phe-Arg-AMC 2 μM, enzyme 3 nM, pH 5.5, 30 minutes
cathepsin L, sequence (P07711 114-333, species assumed): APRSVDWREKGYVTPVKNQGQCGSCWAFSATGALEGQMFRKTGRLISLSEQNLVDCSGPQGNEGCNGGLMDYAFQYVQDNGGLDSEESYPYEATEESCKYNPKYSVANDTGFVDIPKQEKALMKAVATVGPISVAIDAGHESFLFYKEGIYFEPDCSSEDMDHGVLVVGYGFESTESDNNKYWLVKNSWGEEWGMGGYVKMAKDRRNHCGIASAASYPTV
Procedure, shortened: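 Enzyme at 3 nM with 2 μM Z-Phe-Arg-AMC in 50 mM MES pH 5.5, 2.5 mM DTT, 2.5 mM EDTA, 0.005% Polysorbate 20, 10% DMSO; 30 min reaction, AMC fluorescence 340/460 nm. Ten-point series 10.0 μM to 0.000508 μM; IC50 by 4-parameter logistic fit.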

[3] = target: T1, cathepsin K (Homo sapiens, UniProt P43235); test: Inhibitory activity assay against cathepsin K (enzyme assay); details: Z-Phe-Arg-AMC 10 μM, enzyme 1 nM, pH 5.5, 30 minutes
T1 sequence (P43235 115-329): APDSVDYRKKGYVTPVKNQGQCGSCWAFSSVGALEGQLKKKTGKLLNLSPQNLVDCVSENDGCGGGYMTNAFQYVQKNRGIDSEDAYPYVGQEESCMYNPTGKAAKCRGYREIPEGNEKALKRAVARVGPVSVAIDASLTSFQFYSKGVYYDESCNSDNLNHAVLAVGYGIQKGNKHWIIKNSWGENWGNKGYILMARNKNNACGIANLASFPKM
Procedure, shortened: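 Fluorogenic assay with 1 nM cathepsin K and 10 μM Z-Phe-Arg-AMC in pH 5.5 buffer (50 mM MES, 2 mM DTT, 2.5 mM EDTA, 0.01% Triton X-100, 10% DMSO). Ten compound concentrations, 10.0 to 0.000508 μM; 30 min reaction, ex 355/em 460 nm; IC50 by 4-parameter logistic fit.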

[4] = target: cathepsin S (Homo sapiens, UniProt P25774); test: Inhibitory activity assay against cathepsin S (enzyme assay); details: Z-Phe-Arg-AMC 70 μM, enzyme 3 nM, pH 6.5, 45 minutes
cathepsin S, sequence (P25774 115-331, species assumed): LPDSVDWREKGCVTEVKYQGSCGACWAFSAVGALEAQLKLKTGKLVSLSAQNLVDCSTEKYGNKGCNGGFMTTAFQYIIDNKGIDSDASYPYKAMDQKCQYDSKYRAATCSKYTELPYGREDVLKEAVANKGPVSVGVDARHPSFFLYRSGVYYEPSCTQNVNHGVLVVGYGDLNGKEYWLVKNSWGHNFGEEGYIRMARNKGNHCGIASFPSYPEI
Procedure, shortened: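 Cathepsin S (3 nM final) with Z-Phe-Arg-AMC substrate (70 μM final) in pH 6.5 buffer of 50 mM MES, 2.5 mM DTT, 1.0 mM EDTA, 0.001% BSA, 10% DMSO; compound 10.0 μM down to 0.000508 μM, 10 points. Fluorescence (ex 340/em 460 nm) after 45 min; IC50 by 4-parameter logistic fit.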

| Compound | IC50 [1] [nM] | IC50 [2] [nM] | IC50 [3] [nM] | IC50 [4] [nM] |
| --- | --- | --- | --- | --- |
| N#Cc1nccc(C2(NC(=O)Nc3ccccc3)CCCCC2)n1 [Example 86, 1-(1-(2-cyanopyrimidin-4-yl)cyclohexyl)-3-phenylurea] | > 10000 | 2460 | 38.9 | 7110 |
| N#Cc1nccc(C2(NC(=O)Nc3ccc(-c4ccc(C(=O)NC5CC5)cc4)cc3)CCCCC2)n1 [Example 149, 4′-(3-(1-(2-cyanopyrimidin-4-yl)cyclohexyl)ureido)-N-cyclopropyl-[1,1′-biphenyl]-4-carboxamide] | > 10000 | > 10000 | 6.4 | 7300 |
| CC(C)N1CCN(c2ccc(-c3ccc(NC(=O)NC4(c5ccnc(C#N)n5)CCCCC4)cc3F)cc2)CC1 [Example 166, 1-(1-(2-cyanopyrimidin-4-yl)cyclohexyl)-3-(2-fluoro-4′-(4-isopropylpiperazin-1-yl)-[1,1′-biphenyl]-4-yl)urea] | 2410 | 3440 | 0.4 | 5940 |
| N#Cc1nccc(C2(NC(=O)Nc3ccc(I)c(C(F)(F)F)c3)CCCCC2)n1 [Example 136, 1-(1-(2-cyanopyrimidin-4-yl)cyclohexyl)-3-(4-iodo-3-(trifluoromethyl)phenyl)urea] | > 10000 | > 10000 | 24.5 | > 10000 |
| N#Cc1nccc(C2(NC(=O)OCCc3ccccc3)CCCC2)n1 [Example 4, phenethyl (1-(2-cyanopyrimidin-4-yl)cyclopentyl)carbamate] | > 10000 | > 10000 | 1150 | > 10000 |
| N#Cc1nccc(C2(NC(=O)Nc3ccc(-c4ccccc4C(F)(F)F)c(C(F)(F)F)c3)CCCCC2)n1 [Example 176, 1-(2,2′-bis(trifluoromethyl)-[1,1′-biphenyl]-4-yl)-3-(1-(2-cyanopyrimidin-4-yl)cyclohexyl)urea] | > 10000 | > 10000 | 122 | 5840 |
| N#Cc1nccc(C2(NC(=O)Nc3ccc(-c4ccc(C(=O)NCCn5ccnc5)cc4)cc3)CCCCC2)n1 [Example 185, N-(2-(1H-imidazol-1-yl)ethyl)-4′-(3-(1-(2-cyanopyrimidin-4-yl)cyclohexyl)ureido)-[1,1′-biphenyl]-4-carboxamide] | 1760 | 4400 | 0.1 | > 10000 |
| N#Cc1nccc(C2(NC(=O)OCc3ccc(Cl)cc3)CCCCC2)n1 [Example 23, 4-chlorobenzyl (1-(2-cyanopyrimidin-4-yl)cyclohexyl)carbamate] | > 10000 | > 10000 | 19.9 | > 10000 |
| N#Cc1nccc(C2(NC(=O)Nc3ccccc3)CCCC2)n1 [Example 41, 1-(1-(2-cyanopyrimidin-4-yl)cyclopentyl)-3-phenylurea] | > 10000 | 8180 | 39.9 | > 10000 |
| N#Cc1nccc(C2(NC(=O)OCc3cccc(C(F)(F)F)c3)CCCCC2)n1 [Example 14, 3-(trifluoromethyl)benzyl (1-(2-cyanopyrimidin-4-yl)cyclohexyl)carbamate] | > 10000 | 9230 | 3700 | > 10000 |
| N#Cc1nccc(C2(NC(=O)Nc3ccc(F)c(C(F)(F)F)c3)CCOCC2)n1 [Example 85, 1-(4-(2-cyanopyrimidin-4-yl)tetrahydro-2H-pyran-4-yl)-3-(4-fluoro-3-(trifluoromethyl)phenyl)urea] | > 10000 | > 10000 | 28.2 | > 10000 |
| Cc1ccc(CNC(=O)NC2(c3ccnc(C#N)n3)CCCC2)cc1 [Example 48, 1-(1-(2-cyanopyrimidin-4-yl)cyclopentyl)-3-(4-methylbenzyl)urea] | > 10000 | > 10000 | 49.6 | > 10000 |
| N#Cc1nccc(C2(NC(=O)NCc3ccccc3)CCCCC2)n1 [Example 88, 1-benzyl-3-(1-(2-cyanopyrimidin-4-yl)cyclohexyl)urea] | > 10000 | 7140 | 31.6 | > 10000 |
| N#Cc1nccc(C2(NC(=O)Nc3ccc(Cl)c(C(F)(F)F)c3)CCCCC2)n1 [Example 93, 1-(4-chloro-3-(trifluoromethyl)phenyl)-3-(1-(2-cyanopyrimidin-4-yl)cyclohexyl)urea] | > 10000 | > 10000 | 23.9 | > 10000 |
| Cc1cccc(NC(=O)NC2(c3ccnc(C#N)n3)CCCC2)c1C [Example 64, 1-(1-(2-cyanopyrimidin-4-yl)cyclopentyl)-3-(2,3-dimethylphenyl)urea] | 5890 | 5510 | 75.9 | > 10000 |
| N#Cc1nccc(C2(NC(=O)Nc3ccc(-c4ccc(CC(=O)O)cc4)cc3)CCCCC2)n1 [Example 161, 2-(4′-(3-(1-(2-cyanopyrimidin-4-yl)cyclohexyl)ureido)-[1,1′-biphenyl]-4-yl)acetic acid] | > 10000 | > 10000 | 61.1 | > 10000 |
| N#Cc1nccc(C2(NC(=O)OCc3cccc(Br)c3)CCCC2)n1 [Example 3, 3-bromobenzyl (1-(2-cyanopyrimidin-4-yl)cyclopentyl)carbamate] | > 10000 | 6390 | 507 | > 10000 |
| N#Cc1nccc(C2(NC(=O)OCc3ccc(Br)cc3)CCCC2)n1 [Example 2, 4-bromobenzyl (1-(2-cyanopyrimidin-4-yl)cyclopentyl)carbamate] | > 10000 | > 10000 | 21.8 | > 10000 |
| N#Cc1nccc(C2(NC(=O)Nc3ccc4c(c3)CCC4)CCCC2)n1 [Example 82, 1-(1-(2-cyanopyrimidin-4-yl)cyclopentyl)-3-(2,3-dihydro-1H-inden-5-yl)urea] | 7610 | > 10000 | 54.5 | > 10000 |
| N#Cc1nccc(C2(NC(=O)Nc3ccc(-c4ccc(C(=O)N5CCCC5)c(Cl)c4)cc3)CCCCC2)n1 [Example 150, 1-(3′-chloro-4′-(pyrrolidin-1-carbonyl)-[1,1′-biphenyl]-4-yl)-3-(1-(2-cyanopyrimidin-4-yl)cyclohexyl)urea] | > 10000 | 8920 | 6.6 | > 10000 |
| CS(=O)(=O)c1ccc(-c2cccc(COC(=O)NC3(c4ccnc(C#N)n4)CCCC3)c2)cc1 [Example 30, (4′-(methylsulfonyl)-[1,1′-biphenyl]-3-yl)methyl (1-(2-cyanopyrimidin-4-yl)cyclopentyl)carbamate] | > 10000 | > 10000 | 355 | 9450 |
| N#Cc1nccc(C2(NC(=O)Nc3ccc(-c4ccc(S(=O)(=O)C(F)(F)F)cc4)c(C(F)(F)F)c3)CCCCC2)n1 [Example 177, 1-(1-(2-cyanopyrimidin-4-yl)cyclohexyl)-3-(2-(trifluoromethyl)-4′-((trifluoromethyl)sulfonyl)-[1,1′-biphenyl]-4-yl)urea] | > 10000 | > 10000 | 205 | 6140 |
| N#Cc1nccc(C2(NC(=O)Nc3ccc(Br)cc3F)CCCCC2)n1 [Example 134, 1-(4-bromo-2-fluorophenyl)-3-(1-(2-cyanopyrimidin-4-yl)cyclohexyl)urea] | > 10000 | > 10000 | 5.3 | > 10000 |

Reference: US11299478B2, “2-cyanopyrimidin-4-yl carbamate or urea derivative or salt thereof, and pharmaceutical composition including same” (HANLIM PHARMACEUTICAL CO., LTD., priority 2018, dated 2022)
